Results as given in article PMC4207410, “Clicked Cinnamic/Caffeic Esters and Amides as Radical Scavengers and 5-Lipoxygenase Inhibitors” (International Journal of Medicinal Chemistry, 2014).

Legend:
[1] = Antiradical activity assay (DPPH radical scavenging); details: DPPH in ethanol, 30 min in the dark at room temperature, absorbance 520 nm; mean [SD] of 2 experiments
Description: The radical scavenging activity of test compounds was measured as previously described using 2,2-diphenyl-1-picrylhydrazyl (DPPH) as a stable radical with slight modifications. Particular care was taken in the preparation of the control (DPPH reagent + ethanol as a diluent without test compounds). Controls with O.D. of 0.350-0.360 at 520 nm were deemed as acceptable to avoid variations in IC50 calculations. 1 mL of DPPH in ethanol ([…]) was mixed with 1 mL of the test compounds at the indicated concentrations or their diluent (ethanol). Each mixture was then shaken vigorously and held in the dark for 30 min at room temperature. The absorbance of DPPH at 520 nm was then measured. The radical scavenging activity was expressed in terms of % inhibition of DPPH absorbance: (1) % Inhibition=[(Acontrol−Atest)/(Acontrol)] ×100, where A control is the absorbance of the control (DPPH solution without test compound) and A test is the absorbance of the test sample (DPPH solution plus compound). Data are expressed as means ± SD of 2 independent experiments, each performed in triplicate (Table 1). IC50 values were calculated from a sigmoidal concentration-response curve fitting model with a variable slope on GraphPad Prism 5 software (GraphPad software, San Diego, California).
Radical scavenging activities of analogous cinnamoyl esters 8a–h, cinnamoyl amides 9a–h, caffeoyl esters 15a–h, and caffeoyl amides 16a–h were assayed using 2,2-diphenyl-1-picrylhydrazyl (DPPH) as a stable radical and are expressed as IC50 concentrations in Table 1.

Molecule `Cc1ccc(-c2cn(CCOC(=O)C=Cc3ccccc3)nn2)cc1` [8f] has a melting point of 139 to 140 °C.

`O=C1O[C@H]([C@@H](O)CO)C(O)=C1O` [Ascorbic acid, reference compound] showed an IC50 [1] of 75.4 µM.

`O=C(C=Cc1ccccc1)OCCn1ccnn1` [8a, 2-(1H-1,2,3-Triazol-1-yl)ethyl Cinnamate] showed a melting point of 99 to 100 °C.

With `Cc1ccc(-c2cn(CCNC(=O)C=Cc3ccccc3)nn2)cc1` [9f] the melting point was 208 °C.

In the case of `O=Cc1ccc(-c2cn(CCOC(=O)C=Cc3ccccc3)nn2)cc1` [8h], the melting point is reported as 127 to 128 °C.

With `O=C(C=Cc1ccccc1)NCCn1ccnn1` [9a] the melting point was 140 to 141 °C.

With `O=Cc1ccc(-c2cn(CCNC(=O)C=Cc3ccccc3)nn2)cc1` [9h] the melting point was 200 to 201 °C.

Work on `O=C(C=Cc1ccccc1)NCCn1cc(C2CCCCC2)nn1` [9c] yielded a melting point of 159 to 161 °C.

Work on `CCCc1cn(CCOC(=O)C=Cc2ccccc2)nn1` [8b, 2-(4-Propyl-1H-1,2,3-triazol-1-yl)ethyl Cinnamate] yielded a melting point of 63 to 64 °C.

For `CCCc1cn(CCOC(=O)/C=C/c2ccc(O)c(O)c2)nn1` [15b], the IC50 [1] was 9.37 µM and the melting point was 180 to 181 °C (dec.).

`O=C(C=Cc1ccccc1)OCCn1cc(C2=CCCCC2)nn1` [8d] showed a melting point of 101 to 103 °C.

In the case of `O=C(/C=C/c1ccc(O)c(O)c1)OCCn1cc(C2CCCCC2)nn1` [15c], the IC50 [1] is reported as 9.3 µM and the melting point is reported as 191 °C (dec.).

`O=C(/C=C/c1ccc(O)c(O)c1)NCCn1cc(C2CCCCC2)nn1` [16c] showed an IC50 [1] of 9.87 µM and a melting point of 183 to 184 °C.

`O=C(C=Cc1ccccc1)NCCn1cc(-c2ccccc2)nn1` [9e] showed a melting point of 171 to 173 °C.

For `O=C(/C=C/c1ccc(O)c(O)c1)OCCn1cc(-c2ccccc2)nn1` [15e], the IC50 [1] was 15.1 µM and the melting point was 193 to 195 °C (dec.).

With `O=Cc1ccc(-c2cn(CCNC(=O)/C=C/c3ccc(O)c(O)c3)nn2)cc1` [16h] the IC50 [1] was 18.1 µM and the melting point was 228 to 230 °C (dec.).

`O=C(C=Cc1ccccc1)OCCn1cc(C2CCCCC2)nn1` [8c] gave a melting point of 119 °C.

`O=C(C=Cc1ccccc1)NCCn1cc(C2=CCCCC2)nn1` [9d] showed a melting point of 170 to 171 °C.

With `CCCc1cn(CCNC(=O)/C=C/c2ccc(O)c(O)c2)nn1` [16b] the IC50 [1] was 12.1 µM and the melting point was 163 to 165 °C.

With `O=C(C=Cc1ccccc1)OCCn1cc(-c2ccccc2)nn1` [8e] the melting point was 122 to 123 °C.

For `O=C(/C=C/c1ccc(O)c(O)c1)NCCn1ccnn1` [16a], the IC50 [1] was 15.4 µM and the melting point was 163 to 165 °C.

For `O=C(/C=C/c1ccc(O)c(O)c1)NCCn1cc(-c2ccccc2)nn1` [16e], the IC50 [1] was 10.5 µM and the melting point was 208 °C (dec.).

For `O=C(C=Cc1ccccc1)NCCn1cc(-c2ccc(F)cc2)nn1` [9g], the melting point was 193 to 196 °C.

`O=C(C=Cc1ccccc1)OCCn1cc(-c2ccc(F)cc2)nn1` [8g] gave a melting point of 134 to 135 °C.

`O=C(/C=C/c1ccc(O)c(O)c1)NCCn1cc(C2=CCCCC2)nn1` [16d] showed an IC50 [1] of 11.2 µM and a melting point of 168 to 169 °C.
